In patent US10076519B2 (CYTOKINETICS, INC., priority 2010, dated 2018):

What follows are molecules tested on rabbit skeletal myofibrils (fast skeletal myofibrils) (assay: Activation of fast skeletal myofibrils (PUMA assay, PK/LDH-coupled ATPase at pCa25)). Details: AC1.4 determined according to the procedure of Example 39; reported as class symbols.
Assay type: biochemical
How it was run: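 Detergent-washed rabbit psoas myofibrils (~90% fast fibres, calcium-regulated) assayed at calcium giving 25% of maximal ATPase rate (pCa25). ADP turnover coupled via pyruvate kinase/lactate dehydrogenase to NADH oxidation, read at 340 nm. Buffer 12 mM PIPES, 2 mM MgCl2, 1 mM DTT, pH 6.8; AC1.4 values derived.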

Structure (SMILES)	Mean AC1.4
CC(C)(CNc1ccc(-c2nnn[nH]2)nn1)c1ccc(F)cc1 [(6-(1H-1,2,3,4-tetraazol-5-yl)pyridazin-3-yl)[2-(4-fluorophenyl)-2-methylpropyl]amine]	D (D=>20 uM)
CC(C)(CNc1ccc(-c2cccc3[nH]ncc23)nn1)c1ccc(F)cc1 [(6-(1H-indazol-4-yl)pyridazin-3-yl)[2-(4-fluorophenyl)-2-methylpropyl]amine]	A (A=<1 uM)
CC(C)(CNc1ccc(-c2ccc3[nH]ncc3c2)nn1)c1ncccc1F [(6-(1H-indazol-5-yl)pyridazin-3-yl)[2-(3-fluoro(2-pyridyl))-2-methylpropyl]amine]	B (B=1-10 uM)
CC(C)(CNc1ccc(-c2ccc3[nH]ncc3c2)nn1)c1ccc(F)cc1 [(6-(1H-indazol-5-yl)pyridazin-3-yl)[2-(4-fluorophenyl)-2-methylpropyl]amine]	A (A=<1 uM)
c1ccc(C2(CNc3ccc(-c4ccc5[nH]ncc5c4)nn3)CCC2)nc1 [(6-(1H-indazol-5-yl)pyridazin-3-yl)[(2-pyridylcyclobutyl)methyl]amine]	A (A=<1 uM)
c1cnc(C2(CNc3ccc(-c4ccc5[nH]ncc5c4)nn3)CCC2)cn1 [(6-(1H-indazol-5-yl)pyridazin-3-yl)[(pyrazin-2-ylcyclobutyl)methyl]amine]	C (C=10-20 uM)
CS(=O)(=O)N(CC1(c2ncccc2F)CNC1)c1ccc(-c2ccc3[nH]ncc3c2)nn1 [(6-(1H-indazol-5-yl)pyridazin-3-yl){[3-(3-fluoro(2-pyridyl))azetidin-3-yl]methyl}(methylsulfonyl)amine]	D (D=>20 uM)
Fc1cccnc1C1(CNc2ccc(-c3ccc4[nH]ncc4c3)nn2)CNC1 [(6-(1H-indazol-5-yl)pyridazin-3-yl){[3-(3-fluoro(2-pyridyl))azetidin-3-yl]methyl}amine]	D (D=>20 uM)
Fc1cccnc1C1(CNc2ccc(-c3ccc4[nH]ncc4c3)nn2)CCC1 [(6-(1H-indazol-5-yl)pyridazin-3-yl){[(3-fluoro(2-pyridyl))cyclobutyl]methyl}amine]	A (A=<1 uM)
COc1cccnc1C1(CNc2ccc(-c3ccc4[nH]ncc4c3)nn2)CCC1 [(6-(1H-indazol-5-yl)pyridazin-3-yl){[(3-methoxy(2-pyridyl))cyclobutyl]methyl}amine]	B (B=1-10 uM)
Fc1ccc(C2(CNc3ccc(-c4ccc5[nH]ncc5c4)nn3)CCC2)cc1 [(6-(1H-indazol-5-yl)pyridazin-3-yl){[(4-fluorophenyl)cyclo-butyl]methyl}amine]	A (A=<1 uM)
COc1ccnc(C2(CNc3ccc(-c4ccc5[nH]ncc5c4)nn3)CCC2)c1 [(6-(1H-indazol-5-yl)pyridazin-3-yl){[(4-methoxy(2-pyridyl))cyclobutyl]methyl}amine]	A (A=<1 uM)
COc1ccc(C2(CNc3ccc(-c4ccc5[nH]ncc5c4)nn3)CCC2)nc1 [(6-(1H-indazol-5-yl)pyridazin-3-yl){[(5-methoxy(2-pyridyl))cyclobutyl]methyl}amine]	B (B=1-10 uM)
COc1cccc(C2(CNc3ccc(-c4ccc5[nH]ncc5c4)nn3)CCC2)n1 [(6-(1H-indazol-5-yl)pyridazin-3-yl){[(6-methoxy(2-pyridyl))cyclobutyl]methyl}amine]	A (A=<1 uM)
CC(C)(CNc1ccc(-c2ccc3cn[nH]c3c2)nn1)c1ccc(F)cc1 [(6-(1H-indazol-6-yl)pyridazin-3-yl)[2-(4-fluorophenyl)-2-methylpropyl]amine]	A (A=<1 uM)
c1ccc(C2(CNc3ccc(-c4ccc5cn[nH]c5c4)nn3)CCC2)nc1 [(6-(1H-indazol-6-yl)pyridazin-3-yl)[(2-pyridylcyclobutyl)methyl]amine]	A (A=<1 uM)
c1cnc(C2(CNc3ccc(-c4ccc5cn[nH]c5c4)nn3)CCC2)cn1 [(6-(1H-indazol-6-yl)pyridazin-3-yl)[(pyrazin-2-ylcyclobutyl)methyl]amine]	C (C=10-20 uM)
Fc1cccnc1C1(CNc2ccc(-c3ccc4cn[nH]c4c3)nn2)CCC1 [(6-(1H-indazol-6-yl)pyridazin-3-yl){[(3-fluoro(2-pyridyl))cyclobutyl]methyl}amine]	A (A=<1 uM)
COc1cccnc1C1(CNc2ccc(-c3ccc4cn[nH]c4c3)nn2)CCC1 [(6-(1H-indazol-6-yl)pyridazin-3-yl){[(3-methoxy(2-pyridyl))cyclobutyl]methyl}amine]	B (B=1-10 uM)
Fc1ccc(C2(CNc3ccc(-c4ccc5cn[nH]c5c4)nn3)CCC2)cc1 [(6-(1H-indazol-6-yl)pyridazin-3-yl){[(4-fluorophenyl)cyclo-butyl]methyl}amine]	A (A=<1 uM)
COc1ccnc(C2(CNc3ccc(-c4ccc5cn[nH]c5c4)nn3)CCC2)c1 [(6-(1H-indazol-6-yl)pyridazin-3-yl){[(4-methoxy(2-pyridyl))cyclobutyl]methyl}amine]	A (A=<1 uM)
COc1ccc(C2(CNc3ccc(-c4ccc5cn[nH]c5c4)nn3)CCC2)nc1 [(6-(1H-indazol-6-yl)pyridazin-3-yl){[(5-methoxy(2-pyridyl))cyclobutyl]methyl}amine]	B (B=1-10 uM)
COc1cccc(C2(CNc3ccc(-c4ccc5cn[nH]c5c4)nn3)CCC2)n1 [(6-(1H-indazol-6-yl)pyridazin-3-yl){[(6-methoxy(2-pyridyl))cyclobutyl]methyl}amine]	A (A=<1 uM)

Same assay, conditions: median AC1.4 class, procedure of Example 39

Structure (SMILES)	Mean AC1.4
N#C/N=C(/N)c1cnc(-c2ccc(NCC3(c4ncccc4F)CCC3)nn2)s1 [(2E)-3-amino-3-{2-[6-({[(3-fluoro(2-pyridyl))cyclobutyl]methyl}ami-no)pyridazin-3-yl](1,3-thiazol-5-yl)}-2-azaprop-2-enenitrile]	B (B=1-10 uM)
N[C@H](CO)C(=O)NCc1cnc(-c2ccc(NCC3(c4ncccc4F)CCC3)nn2)s1 [(2R)-2-amino-N-({2-[6-({[(3-fluoro(2-pyridyl))cyclobutyl]methyl}ami-no)pyridazin-3-yl](1,3-thiazol-5-yl)}methyl)-3-hydroxypropanamide]	A (A=<1 uM)
C[C@@H](N)C(=O)NCc1cnc(-c2ccc(NCC3(c4ncccc4F)CCC3)nn2)s1 [(2R)-2-amino-N-({2-[6-({[(3-fluoro(2-pyridyl))cyclobutyl]methyl}ami-no)pyridazin-3-yl](1,3-thiazol-5-yl)}methyl)propanamide]	A (A=<1 uM)
N[C@@H](CO)C(=O)NCc1cnc(-c2ccc(NCC3(c4ncccc4F)CCC3)nn2)s1 [(2S)-2-amino-N-({2-[6-({[(3-fluoro(2-pyridyl))cyclobutyl]methyl}ami-no)pyridazin-3-yl](1,3-thiazol-5-yl)}methyl)-3-hydroxypropanamide]	A (A=<1 uM)
C[C@H](N)C(=O)NCc1cnc(-c2ccc(NCC3(c4ncccc4F)CCC3)nn2)s1 [(2S)-2-amino-N-({2-[6-({[(3-fluoro(2-pyridyl))cyclobutyl]methyl}ami-no)pyridazin-3-yl](1,3-thiazol-5-yl)}methyl)propanamide]	A (A=<1 uM)
CC(C)(Nc1ccc(-c2ccc3[nH]ncc3c2)nn1)c1ccccc1 [(6-(1H-indazol-5-yl)pyridazin-3-yl)(1-methyl-1-phenylethyl)amine]	B (B=1-10 uM)
Fc1cccnc1C1(Nc2ccc(-c3ccc4[nH]ncc4c3)nn2)CCC1 [(6-(1H-indazol-5-yl)pyridazin-3-yl)[(3-fluoro(2-pyridyl))cyclobutyl]amine]	B (B=1-10 uM)
Fc1ccc(C2(Nc3ccc(-c4ccc5[nH]ncc5c4)nn3)CCC2)cc1 [(6-(1H-indazol-5-yl)pyridazin-3-yl)[(4-fluorophenyl)cyclobutyl]amine]	A (A=<1 uM)
Fc1cccnc1C1(CNc2ccc(-c3ccc4[nH]ncc4c3)nn2)CC(F)(F)C1 [(6-(1H-indazol-5-yl)pyridazin-3-yl){[3,3-difluoro-1-(3-fluoro(2-pyridyl))cyclobutyl]methyl}amine]	B (B=1-10 uM)
FC(F)(CNc1ccc(-c2ccc3cn[nH]c3c2)nn1)c1ccccn1 [(6-(1H-indazol-6-yl)pyridazin-3-yl)(2,2-difluoro-2-(2-pyridyl)ethyl)amine]	D (D=>20 uM)
Fc1cccnc1C1(Nc2ccc(-c3ccc4cn[nH]c4c3)nn2)CCC1 [(6-(1H-indazol-6-yl)pyridazin-3-yl)[(3-fluoro(2-pyridyl))cyclobutyl]amine]	B (B=1-10 uM)
Fc1cccnc1C1(CNc2ccc(-c3ccc4cn[nH]c4c3)nn2)CC(F)(F)C1 [(6-(1H-indazol-6-yl)pyridazin-3-yl){[3,3-difluoro-1-(3-fluoro(2-pyridyl))cyclobutyl]methyl}amine]	B (B=1-10 uM)
Fc1cccnc1C1(CNc2ccc(-c3nn[nH]n3)nn2)CCC1 [(6-(2H-1,2,3,4-tetraazol-5-yl)pyridazin-3-yl){[(3-fluoro(2-pyridyl))cyclobutyl]methyl}amine]	D (D=>20 uM)
Fc1cccnc1C1(CNc2ccc(C3CNC3)nn2)CCC1 [(6-azetidin-3-ylpyridazin-3-yl){[(3-fluoro(2-pyridyl))cyclobutyl]methyl}amine]	D (D=>20 uM)

Same assay, conditions: median AC1.4 reported as class; procedure of Example 39

Structure (SMILES)	Mean AC1.4
C[C@@H](O)C(=O)NCc1cnc(-c2ccc(NCC3(c4ncccc4F)CCC3)nn2)s1 [(2R)-N-({2-[6-({[(3-fluoro(2-pyridyl))cyclobutyl]methyl}ami-no)pyridazin-3-yl](1,3-thiazol-5-yl)}methyl)-2-hydroxypropanamide]	A (A=<1 uM)
C[C@H](O)C(=O)NCc1cnc(-c2ccc(NCC3(c4ncccc4F)CCC3)nn2)s1 [(2S)-N-({2-[6-({[(3-fluoro(2-pyridyl))cyclobutyl]methyl}ami-no)pyridazin-3-yl](1,3-thiazol-5-yl)}methyl)-2-hydroxypropanamide]	A (A=<1 uM)
NC1(C(=O)NCc2cnc(-c3ccc(NCC4(c5ncccc5F)CCC4)nn3)s2)COC1 [(3-aminooxetan-3-yl)-N-({2-[6-({[(3-fluoro(2-pyridyl))cyclobutyl]methyl}ami-no)pyridazin-3-yl](1,3-thiazol-5-yl)}methyl)carboxamide]	A (A=<1 uM)
